Key:
Assay type in all cases: cell-based
[1] = Cytotoxicity in PHH natural infection assay (Cell Counting Kit-8); settings: HBV-infected primary human hepatocytes, CCK8
Method: (§1) Detailed procedures regarding primary human hepatocyte (PHH) HBV natural infection assay are described as below. One tube of frozen PHH (10 million cells) is thawed in 37° C. water bath and then transferred to 20 mL of PHH thawing medium (Sigma, InVitroGRO HT Medium, Cat. S03319) with gently mixing. The cells were then centrifuged at […] for 5 min, the supernatant was discarded and the tube was refilled with 25 mL of PHH plating medium (Sigma, InVitroGRO CP Medium, Cat. S03317). The tube was shaken very gently to re-suspend all cells, and then 50 μL of cells were transferred to each well 384-well collagen I coated plate with appropriate liquid handling equipment, e.g. Integra VIAFLO384 or Agilent Bravo. The cells were then cultured for 24 hours in a cell incubator. For HBV infection, after PHH attachment on the culture plate, the plating medium was removed and replenished with PHH culture medium containing HBV virus. The PHH culture medium was prepared with Dulbecco's Modified Eagle Medium (DMEM)/F12 (1:1 in volume ratio) containing 10% fetal bovine serum (Gibco, Cat. 10099141), 5 ng/mL human epidermal growth factor (Gibco, Cat. PHG0311L), 20 ng/mL dexamethasone (Sigma, Cat. D4902-100 mg), 250 ng/mL human recombinant insulin (Gibco, Cat. 41400045) and 100 U/mL penicillin. HBV virus at 200 genome equivalent (GE) per cell with 4% PEG8000 (Sigma, Cat. P1458) containing culture medium were added to the PHH culture medium for infection. The cells were then cultured for 24 hours in cell incubator. Then the cell culture supernatant was removed. The HBV-infected PHH were cultured with sandwich culture method with MEI culture medium containing 1% DMSO and 0.25 mg/mL matrix gel for 72 hours. The supernatant was then refreshed with PHH culture medium containing different concentrations of testing compounds for two times with 72-hour interval. At the end of treatment, the supernatant was collected for viral markers measurements, including HBsAg, HBeAg, HBV DNA and cytotoxicity. HBsAg and HBeAg were detected using alphalisa method using their specific antibodies. For HBV DNA detection, HBV DNA Quantitative Fluorescence Diagnostic Kit (Sansure Biotech Inc.) was used following the manufacture's protocol. Cytotoxicity was determined using Cell Counting Kit-8 (CCK8, Dojindo Molecular Technologies, Inc.).

HBeAg = assay: PHH HBV natural infection assay, HBeAg (alphalisa); settings: Hepatitis B virus, Hepatocyte, read-out: HBeAg IC50
Method: as §1
(§2) The compounds of the present invention were tested for their capacity to inhibit HBsAg and HBeAg as described herein.

HBsAg = assay: PHH HBV natural infection assay, HBsAg (alphalisa); settings: Hepatitis B virus, Hepatocyte, read-out: HBsAg IC50
Method: as §1, §2

Compound | CC50 at 144 h [1] [µM] | IC50 (HBeAg) [µM] | IC50 (HBsAg) [µM]
NC(=O)c1ccc(C(=O)NCC2CCN(c3nc4cc(Cl)ccc4o3)CC2)o1 [Example 1, N2-[[1-(5-Chloro-1,3-benzoxazol-2-yl)-4-piperidyl]methyl]furan-2,5-dicarboxamide] | > 10 | 7.13 | 9.4
O=C(NCC1CCN(c2nc3cc(Cl)ccc3o2)CC1)c1ccc(C(F)(F)F)nc1 [Example 2, N-[[1-(5-chloro-1,3-benzoxazol-2-yl)-4-piperidyl]methyl]-6-(trifluoromethyl)pyridine-3-carboxamide] | > 10 | 6.31 | 8.1
O=C(NCC1CCN(c2nc3cc(Cl)ccc3o2)CC1)c1ccnc(S(=O)(=O)C2CC2)c1 [Example 3, N-[[1-(5-chloro-1,3-benzoxazol-2-yl)-4-piperidyl]methyl]-2-cyclopropylsulfonyl-pyridine-4-carboxamide] | > 10 | 6.38 | 7.84
CS(=O)(=O)c1cccc(C(=O)NCC2CCN(c3nc4cc(Cl)ccc4o3)CC2)c1 [Example 4, N-[[1-(5-chloro-1,3-benzoxazol-2-yl)-4-piperidyl]methyl]-3-methylsulfonyl-benzamide] | > 10 | 5.74 | 6.28
CS(=O)(=O)c1cc(C(=O)NCC2CCN(c3nc4cc(Cl)ccc4o3)CC2)ccn1 [Example 5, N-[[1-(5-chloro-1,3-benzoxazol-2-yl)-4-piperidyl]methyl]-2-methylsulfonyl-pyridine-4-carboxamide] | > 10 | 4.93 | 4.68
NC(=O)c1cc(C(=O)NCC2CCN(c3nc4cc(Cl)ccc4o3)CC2)ccn1 [Example 6, N4-[[1-(5-chloro-1,3-benzoxazol-2-yl)-4-piperidyl]methyl]pyridine-2,4-dicarboxamide] | > 10 | 4.43 | 4.36
O=C(NCC1CCN(c2nc3cc(Cl)ccc3o2)CC1)c1ccc(C(F)(F)F)o1 [Example 7, N-[[1-(5-chloro-1,3-benzoxazol-2-yl)-4-piperidyl]methyl]-5-(trifluoromethyl)furan-2-carboxamide] | 96.7 | 3.45 | 3.83
NS(=O)(=O)c1ccc(C(=O)NCC2CCN(c3nc4cc(Cl)ccc4o3)CC2)o1 [Example 8, N-[[1-(5-chloro-1,3-benzoxazol-2-yl)-4-piperidyl]methyl]-5-sulfamoyl-furan-2-carboxamide] | > 10 | 2.85 | 3.14
CS(=O)(=O)c1cncc(C(=O)NCC2CCN(c3nc4cc(Cl)ccc4o3)CC2)c1 [Example 9, N-[[1-(5-chloro-1,3-benzoxazol-2-yl)-4-piperidyl]methyl]-5-methylsulfonyl-pyridine-3-carboxamide] | > 10 | 1.83 | 1.5
O=C(NCC1CCN(c2nc3cc(Cl)ccc3o2)CC1)C1CS(=O)(=O)C1 [Example 10, N-[[1-(5-chloro-1,3-benzoxazol-2-yl)-4-piperidyl]methyl]-1,1-dioxo-thietane-3-carboxamide] | > 100 | 10.4 | 9.67
O=C(NCC1CCN(c2nc3cc(Cl)ccc3o2)C1)c1ccnc(S(=O)(=O)C2CC2)c1 (stereo not drawn) [Example 11, N-[[1-(5-chloro-1,3-benzoxazol-2-yl)pyrrolidin-3-yl]methyl]-2-cyclopropylsulfonyl-pyridine-4-carboxamide] | > 10 | 7.85 | 9.14
O=C(NC1CCN(c2nc3cc(Cl)ccc3o2)CC1)c1ccc(C(F)(F)F)o1 [Example 12, N-[1-(5-chloro-1,3-benzoxazol-2-yl)-4-piperidyl]-5-(trifluoromethyl)furan-2-carboxamide] | > 100 | 5.44 | 4.59
CS(=O)(=O)N1CCC(C(=O)NCC2CCN(c3nc4cc(Cl)ccc4o3)CC2)C1 (stereo not drawn) [Example 13, N-[[1-(5-chloro-1,3-benzoxazol-2-yl)-4-piperidyl]methyl]-1-methylsulfonyl-pyrrolidine-3-carboxamide] | > 10 | 8.5 | 9.37
Cc1ccc(S(=O)(=O)N2CCC(C(=O)NCC3CCN(c4nc5cc(Cl)ccc5o4)CC3)C2)cc1 (stereo not drawn) [Example 14, N-[[1-(5-chloro-1,3-benzoxazol-2-yl)-4-piperidyl]methyl]-1-(p-tolylsulfonyl)pyrrolidine-3-carboxamide] | > 10 | 4.16 | 3.82
CS(=O)(=O)N1CCC(C(=O)NCC2CCN(c3nc4cc(Cl)ccc4o3)CC2)CC1 [Example 15, N-[[1-(5-chloro-1,3-benzoxazol-2-yl)-4-piperidyl]methyl]-1-methylsulfonyl-piperidine-4-carboxamide] | > 10 | 3.64 | 3.97
Cc1ccc(S(=O)(=O)N2CCC(C(=O)NCC3CCN(c4nc5cc(Cl)ccc5o4)CC3)CC2)cc1 [Example 16, N-[[1-(5-chloro-1,3-benzoxazol-2-yl)-4-piperidyl]methyl]-1-(p-tolylsulfonyl)piperidine-4-carboxamide] | > 10 | 3.67 | 3.74
CS(=O)(=O)N1CC(CC(=O)NCC2CCN(c3nc4cc(Cl)ccc4o3)CC2)C1 [Example 17, N-[[1-(5-chloro-1,3-benzoxazol-2-yl)-4-piperidyl]methyl]-2-(1-methylsulfonylazetidin-3-yl)acetamide] | > 10 | > 10 | 8.23
Cc1ccc(S(=O)(=O)N2CCC(CC(=O)NCC3CCN(c4nc5cc(Cl)ccc5o4)CC3)C2)cc1 (stereo not drawn) [Example 18, N-[[1-(5-chloro-1,3-benzoxazol-2-yl)-4-piperidyl]methyl]-2-[1-(p-tolylsulfonyl)pyrrolidin-3-yl]acetamide] | > 10 | 3.78 | 3.9
CS(=O)(=O)N1CCC(CC(=O)NCC2CCN(c3nc4cc(Cl)ccc4o3)CC2)CC1 [Example 19, N-[[1-(5-chloro-1,3-benzoxazol-2-yl)-4-piperidyl]methyl]-2-(1-methylsulfonyl-4-piperidyl)acetamide] | > 10 | 3.75 | 7.74
Cc1ccc(S(=O)(=O)N2CCC(CC(=O)NCC3CCN(c4nc5cc(Cl)ccc5o4)CC3)CC2)cc1 [Example 20, N-[[1-(5-chloro-1,3-benzoxazol-2-yl)-4-piperidyl]methyl]-2-[1-(p-tolylsulfonyl)-4-piperidyl]acetamide] | > 10 | 4.05 | 3.88
CCOC(=O)NC1CC2(C1)CN(c1nc3cc(Cl)ccc3o1)C2 [Example 21, Ethyl N-[2-(5-chloro-1,3-benzoxazol-2-yl)-2-azaspiro[3.3]heptan-6-yl]carbamate] | > 100 | 5.24 | 7.15
CC(C)COC(=O)NC1CC2(C1)CN(c1nc3cc(Cl)ccc3o1)C2 [Example 22, Isobutyl N-[2-(5-chloro-1,3-benzoxazol-2-yl)-2-azaspiro[3.3]heptan-6-yl]carbamate] | 82.7 | 4.82 | 5.87
CN(C)C(=O)NC1CC2(C1)CN(c1nc3cc(Cl)ccc3o1)C2 [Example 23, 3-[2-(5-Chloro-1,3-benzoxazol-2-yl)-2-azaspiro[3.3]heptan-6-yl]-1,1-dimethyl-urea] | > 100 | 6.62 | 7.63
CCNC(=O)NC1CC2(C1)CN(c1nc3cc(Cl)ccc3o1)C2 [Example 24, 1-[2-(5-Chloro-1,3-benzoxazol-2-yl)-2-azaspiro[3.3]heptan-6-yl]-3-ethyl-urea] | > 100 | 8.31 | 7.29
O=C(CCC(F)(F)F)NC1CC2(C1)CN(c1nc3cc(Cl)ccc3o1)C2 [Example 25, N-[2-(5-chloro-1,3-benzoxazol-2-yl)-2-azaspiro[3.3]heptan-6-yl]-4,4,4-trifluoro-butanamide] | > 100 | 10.3 | 9.8
O=C(NC1CC2(C1)CN(c1nc3cc(Cl)ccc3o1)C2)C1CCS(=O)(=O)C1 (stereo not drawn) [Example 26, N-[2-(5-chloro-1,3-benzoxazol-2-yl)-2-azaspiro[3.3]heptan-6-yl]-1,1-dioxo-thiolane-3-carboxamide] | > 100 | 4.65 | 8.76
